Measurements reported in patent publication EP4721746A1, “TREATMENT OF MALIGNANT TUMOR” (SymBio Pharmaceuticals Limited, priority 2023, dated 2024).

Assays:
[1] = tested on: B-cell lymphoma cell lines; experiment: CellTiter-Glo 2.0 cell viability assay, B-cell lymphoma cell lines; format: cell-based; conditions: 19 B-cell lymphoma cell lines; Fig. 14
Description: (§1) The effect of BCV on cell viability was examined in 19 different B-cell lymphoma cell lines and a CML cell line (K-562) as a control. Cell viability was quantified using Promega CellTiter-Glo(registered trademark) 2.0 Cell Viability Assay (Promega, Madison, Wisconsin, USA) according to the manufacturer's protocol. Specifically, cells were plated in a 96-well plate at a concentration of 2×10^3 cells in 100 µL of culture medium, and the drug (BCV) was added at each concentration. After each time point, Promega CellTiter-Glo(registered trademark) 2.0 Cell Viability Assay reagent was added to the wells and incubated at room temperature for 10 minutes, and subsequently, absorbance at 480 nm was measured using a Tecan M200 Infinite 96-well plate reader and iControl software 1.6 (Tecan, Männedorf, Switzerland). Cell viability was calculated as a percentage of a control absorbance. The growth-inhibitory effect was analyzed by generating a dose-response curve as a plot of the percentage of viable cells against the drug concentration, and their IC50s were estimated using GraphPad Prism version 8.0.2 (GraphPad Software). All reactions were performed in triplicate.

[2] = tested on: T-cell lymphoma cells (Z4739); experiment: In vivo study, NSG mice inoculated with Z4739
Description: (§2) 0.5 x 10^6 cells of Z4739 were inoculated into 6-week-old female NSG mice, and BCV or a control solvent was administered intraperitoneally at a dosage of 40 mg/kg twice weekly. Tumor measurements were recorded at each time point (Days 4, 7, 11, 18, and 21) until the tumor size in the control group reached approximately 2500 mm^3. Mice were euthanized according to the IACUC guidelines. The tumor sizes and weights of the experimental group and the control group (n=5 per group) were averaged on Day 21 and compared statistically. Throughout the experiment, signs of toxicity including diarrhea and weight loss were monitored.

[3] = tested on: NK/T-cell lymphoma cell lines; experiment: CellTiter-Glo 2.0 cell viability assay, NK/T-cell lymphoma cell lines; format: cell-based; conditions: 11 NK/T-cell lymphoma cell lines; Fig. 1
Description: as §1, with “examined in 11 different NK/T-cell” for “examined in 19 different B-cell”, “11 different NK/T-cell lymphoma cell” for “19 different B-cell lymphoma cell”, “lymphoma cell lines. Cell viability” for “lymphoma cell lines and a CML cell line (K-562) as a control. Cell viability”, “point, Promega CellTiter-Glo (registered trademark) 2.0” for “point, Promega CellTiter-Glo(registered trademark) 2.0”, “percentage of the control absorbance.” for “percentage of a control absorbance.”

Z4739 cells = experiment: Western blotting of lysates of BCV-treated Z4739 cells; format: cell-based; conditions: Z4739 treated with 0.1 and 1 µg/mL of BCV; Western blot, Fig. 13
Description: Lysates of Z4739 cells treated with 0.1 and 1 µg/mL of BCV were separated by SDS-PAGE using 4-15% Mini-PROTEAN™ TGX Stain-Free™ Protein Gels (Bio-Rad Laboratories, Hercules, CA, USA), and the separated components were transferred to a 0.2 µm PVDF membrane (Bio-Rad Laboratories, Hercules, California, USA). After blocking for 1 hour in a TBST solution (50 mM Tris/HCl, pH 7.4, 150 mM NaCl, 0.1% Tween-20) containing 5% skimmed milk powder (Bio-Rad Laboratories, Hercules, CA, USA) or 5% bovine serum albumin (Sigma-Aldrich, Darmstadt, Germany), the membrane was exposed to respective primary antibodies overnight at 4°C with gentle shaking. Furthermore, exposure to an HRP-conjugated anti-rabbit or anti-mouse antibody (Cytiva, Washington D.C., USA) was performed for 1 hour, and finally, chemiluminescent detection was performed using a SuperSignal Substrate Western Blotting Kit (Thermo Fisher Scientific, MA, USA) and imaged on a ChemiDoc™ XRS+ system (Bio-Rad Laboratories, Hercules, California, USA) using Image Lab™ software.

[4] = tested on: T-cell lymphoma cell lines; experiment: CellTiter-Glo 2.0 cell viability assay, T-cell lymphoma cell lines; format: cell-based; conditions: 11 T-cell lymphoma cell lines; Fig. 9
Description: as §1, with “on the” for “on cell”, “viability of 11” for “viability was examined in 19”, “different T-cell” for “different B-cell”, “lines was examined.” for “lines and a CML cell line (K-562) as a control.”, “drug” for “drug (BCV)”

[5] = tested on: NK/T-cell lymphoma cells (NK-S1); experiment: In vivo study, NSG mice inoculated with NK-S1
Description: as §2, with “NK-S1” for “Z4739”, “twice weekly” for “at each time point (Days 4, 7, 11, 18, and 21)”, “2000” for “2500”, “sizes” for “sizes and weights”, “(n=8” for “(n=5”, “at each time point (Days 1, 5, 8, 12, and 15)” for “on Day 21”

Z4739 cell line = experiment: Whole transcriptome sequencing and GSEA of BCV-treated Z4739 cell line; format: cell-based; conditions: Z4739 treated with 0.1 and 1 µg/mL of BCV
Description: The effect of BCV on the gene expression of a T-cell lymphoma cell line was examined. Whole transcriptome sequencing of the Z4739 cell line treated with 0.1 and 1 µg/mL of BCV was performed, and Gene set enrichment analysis (GSEA) was performed using the Molecular Signatures Database (MSigDB) Hallmark gene set. […] Individual gene expression profiles (IFNB1, IFNY, CCL5, CXCL10, MYC) obtained from the whole transcriptome sequencing results were expressed as the number of transcripts detected per million reads.

[6] = tested on: B-cell lymphoma cells (OCI-LY19); experiment: In vivo study, NSG mice inoculated with OCI-LY19
Description: as §2, with “OCI-LY19” for “Z4739”, “1, 5, 6,” for “4, 7, 11, 18,”, “7)” for “21)”, “7” for “21”

- animal's health status ([2]; Z4739 in NSG mice, 40 mg/kg intraperitoneally twice weekly): good
- animal's health status ([5]; NK-S1 in NSG mice, 40 mg/kg intraperitoneally twice weekly): good
- animal's health status ([6]; OCI-LY19 in NSG mice, 40 mg/kg intraperitoneally twice weekly): good
Compound: CCCCCCCCCCCCCCCCOCCCOP(=O)(O)CO[C@H](CO)Cn1ccc(N)nc1=O [BCV, [(2S)-1-(4-amino-2-oxopyrimidin-1-yl)-3-hydroxypropan-2-yl]oxymethyl-(3-hexadecoxypropoxy)phosphinic acid]
- Sensitivity to BCV [1]: varied for each cell line
- viability of B-cell lymphoma cells [1]: decreased
- enlargement of the lymphoma (tumor size) ([2]; Z4739 in NSG mice, 40 mg/kg intraperitoneally twice weekly, Figs. 10A-D): significantly suppressed
- tumor volume ([2]; Z4739 in NSG mice, 40 mg/kg intraperitoneally twice weekly, between Day 0 and Day 21, Fig. 10A): almost no increase in tumor volume observed
- signs of toxicity: weight loss or diarrhea ([2]; mouse, in vivo, ip, 40 mg/kg): no significant weight loss or diarrhea was observed
- Sensitivity to BCV [3]: varied for each cell line
- viability of NK/T-cell lymphoma cells [3]: decreased
- DNA damage (phospho-H2AX) (Z4739 cells): increase
- MYC protein (Z4739 cells): decrease
- PD-L1 (Z4739 cells): increase
- apoptosis indicators (cleaved PARP, cleaved caspase-3) (Z4739 cells): increase
- cell cycle-related indicators (phospho-CHK1 Ser317/Ser345) (Z4739 cells): increase
- Sensitivity to BCV [4]: high in all cell lines
- viability of T-cell lymphoma cells [4]: decreased
- enlargement of lymphoma (tumor size) ([5]; NK-S1 in NSG mice, 40 mg/kg intraperitoneally twice weekly, Days 1-15, Figs. 2A-D): significantly suppressed
- signs of toxicity: diarrhea ([5]; mouse, in vivo, ip, 40 mg/kg): no diarrhea observed
- expression of immune activation-related genes such as INFγ (Z4739 cell line): increased
- expression of MYC (Z4739 cell line; Figs. 12A-C): decreased
- expression of MYC-related gene groups (Z4739 cell line; GSEA): decreased
- expression of other oncogenic genes such as those related to mTOR (Z4739 cell line; GSEA): decreased
- enlargement of lymphoma (tumor size) ([6]; OCI-LY19 in NSG mice, 40 mg/kg intraperitoneally twice weekly, Days 1-7, Figs. 15A-D): significantly suppressed
- signs of toxicity: weight loss or diarrhea ([6]; mouse, in vivo, ip, 40 mg/kg): no weight loss or diarrhea observed
